10 compounds from patent US11952384B2, “Anti-tumor compound and preparation method and use thereof” (DUALITY BIOLOGICS (SUZHOU) CO., LTD., priority 2020, dated 2024) can be followed below.

Molecules are shown by their SMILES. Read-outs that look alike come from different tables or passages of the source.

Data set [1] deals with JIMT-1 cells. Description: Inhibition of in vitro proliferation of tumor cells by compounds (CTG, 6 days). In kind it is cell-based. On the procedure:
(§1) To test the inhibitory activity of the pharmaceutical compounds on the in vitro proliferation of NCI-N87, JIMT-1 and MBA-MB-231 tumor cells. The cells were treated with the compounds at different concentrations in vitro, and after 6 days of culture, the proliferation of cells was detected using the CTG (CellTiter-Glo® Luminescent Cell Viability Assay, Promega, Cat. No. G7558) reagent, and the in vitro activity of the compounds was evaluated according to the IC50 value.
(§2) In the following, the test for the inhibition of the in vitro proliferation of NCI-N87 cells was taken as an example to illustrate the method of the present application for testing the inhibitory activity of the compounds of the present application on the in vitro proliferation of tumor cells. The method was also applicable to, but not limited to, the test for the inhibitory activity on the in vitro proliferation of other tumor cells. • 1. Culturing of cells: NCI-N87 cells were cultured in RPMI-1640 medium containing 10% FBS. • 2. Preparation of cells: NCI-N87 cells in logarithmic phase were taken, washed with PBS once, and digested with 2-3 mL of trypsin for 2-3 min. After the cells were digested completely, 10-15 mL of cell culture was added to elute the digested cells. The eluate was centrifuged at 1000 rpm for 5 min, and the supernatant was discarded. The resulting cells were resuspended in 10-20 mL of cell culture to obtain a single cell suspension. • 3. Cell plating: the NCI-N87 single cell suspension was mixed well and adjusted to a viable cell density of 6×10^4 cells/mL with cell culture. The cell suspension with the adjusted density was mixed well and added to a 96-well cell culture plate at 50 μL/well. The culture plate was incubated in an incubator for 18 h (37° C., 5% CO2). • 4. Preparation of compounds: the compounds were dissolved in DMSO to obtain stock solutions at an initial concentration of 10 mM. There were 8 concentrations in total for the small molecule compounds: 300 nM, 100 nM, 30 nM, 10 nM, 3 nM, 1 nM, 0.3 nM, and 0.1 nM. • 5. Sample adding: the prepared samples to be detected at different concentrations were added to the culture plate, and two duplicate wells were set for each sample. The culture plate was incubated in an incubator for 6 days (37° C., 5% CO2). • 6. Color developing: the 96-well cell culture plate was taken out, added with the CTG reagent at 50 μL/well, and incubated at room temperature for 10 min. • 7. Plate reading: the 96-well cell culture plate was taken out, placed in a microplate reader, and measured for the chemiluminescence using the microplate reader. Data Analysis
(§3) Data were processed and analyzed using Microsoft Excel and Graphpad Prism 5.
(§4) To test the inhibitory activity of the pharmaceutical compounds on the in vitro proliferation of NCI-N87, JIMT-1 and MBA-MB-231 tumor cells. The cells were treated with compounds at different concentrations in vitro, and after 6 days of culture, the proliferation of cells was detected using CTG (CellTiter-Glo® Luminescent Cell Viability Assay, Promega, Cat. No. G7558) reagents, and the in vitro activity of the compounds was evaluated according to the IC50 value. • 1. Culturing of cells: NCI-N87/JIMT-1/MBA-MB-231 cells were cultured in RPMI-1640 medium containing 10% FBS. • 2. Preparation of cells: NCI-N87/JIMT-1/MBA-MB-231 cells in logarithmic phase were taken, washed with PBS once, and digested with 2-3 mL of trypsin for 2-3 min. After the cells were digested completely, 10-15 mL of cell culture was added to elute the digested cells. The eluate was centrifuged at 1000 rpm for 5 min, and the supernatant was discarded. The resulting cells were resuspended in 10-20 mL of cell culture to obtain a single cell suspension. • 3. Cell plating: the NCI-N87/JIMT-1/MBA-MB-231 single cell suspension was mixed well and adjusted to a viable cell density of 6×10^4 cells/mL with cell culture. […]

Data set [2] deals with NCI-N87 cells. The data set is described as above. In kind it is cell-based. The following applies: Homo sapiens, NCI-N87, 144 h, read-out: NCI-N87 IC50 (nM). On the procedure:
as §1, §2, §3, §4

Data set [3] concerns the target T1, BCRP (Homo sapiens, UniProt Q9UNQ0).
T1 sequence (Q9UNQ0 1-655): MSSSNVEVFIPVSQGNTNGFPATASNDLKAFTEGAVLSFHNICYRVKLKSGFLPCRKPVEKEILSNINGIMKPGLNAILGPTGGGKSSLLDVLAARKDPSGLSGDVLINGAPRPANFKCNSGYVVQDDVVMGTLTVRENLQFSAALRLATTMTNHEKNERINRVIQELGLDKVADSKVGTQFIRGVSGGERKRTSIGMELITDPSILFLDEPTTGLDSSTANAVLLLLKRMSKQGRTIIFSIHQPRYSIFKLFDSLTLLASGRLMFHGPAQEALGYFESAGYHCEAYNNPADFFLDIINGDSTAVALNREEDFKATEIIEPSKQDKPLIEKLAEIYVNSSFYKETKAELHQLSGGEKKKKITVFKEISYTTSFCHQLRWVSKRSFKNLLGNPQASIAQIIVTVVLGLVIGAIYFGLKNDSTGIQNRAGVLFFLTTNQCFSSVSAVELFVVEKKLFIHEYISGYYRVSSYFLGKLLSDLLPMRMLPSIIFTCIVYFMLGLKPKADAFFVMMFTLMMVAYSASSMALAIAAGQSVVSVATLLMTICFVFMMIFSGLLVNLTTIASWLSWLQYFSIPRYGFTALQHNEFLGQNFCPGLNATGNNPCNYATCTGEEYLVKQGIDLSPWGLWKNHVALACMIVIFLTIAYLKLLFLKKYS
Description: (§5) To investigate whether the compounds of the present invention is a substrate for efflux transporters P-gp and BCRP in a Caco-2 cell model, thereby providing preclinical basis for analyzing the drug-drug interaction in pharmacokinetics.
(§6) • 1) Cell culture medium was added to each well of the Transwell. The HTS Transwell plate was incubated under conditions of 37° C. and 5% CO2 for 1 h prior to cell inoculation. • 2) Caco-2 cells were diluted with culture medium and the cell suspension was dispensed into filter wells of the 96-well HTS Transwell plate. […] The cell culture medium was changed periodically. • 3) Monolayer cell resistance was measured using the Millicell Epithelial Volt-Ohm detection system. The resistance of each well was recorded. After all wells were measured, the Transwell plate was put back into the incubator. TEER of each well was calculated according to the formula. The TEER value of each well should be greater than 230 ohm·cm^2. […] Preparation for Transporter Test • 1) The Caco-2 plate was taken out from the incubator. The monolayer cells were washed with pre-heated HBSS twice. The plate was then incubated at 37° C. for 30 min. • 2) Stock solutions of the compounds were prepared in DMSO and diluted with HBSS to obtain working solutions. Digoxin was used as a reference substrate for P-gp and rosuvastatin was used as a reference substrate for BCRP. Propranolol was used as a high permeability marker. • 3) The working solution (without inhibitor) was added to the Transwell insert (apical compartment) to determine the rate of drug transport in the apical to basolateral direction. The transfer buffer was added to the wells in the receiver plate (basolateral compartment). The working solution (without inhibitor) was added to the receiver plate wells (basolateral compartment) to determine the rate of drug transport in the basolateral to apical direction. The Transwell insert (apical compartment) was filled with the transport buffer. PSC833 was added to the apical and basolateral compartments to determine the rate of drug transport in the presence of P-gp inhibitors. • 4) The sample was transferred from the working solution to the quenching solution, and a sample with a time of 0 was prepared. The Transwell plate was incubated under conditions of 37° C. and 5% CO2 for 2 h. • 5) At the end of the transport cycle, the samples were transferred from the apical and basolateral wells into a new 96-well plate. Cold acetonitrile or methanol containing the appropriate internal standard (IS) was added to each well of the plate. The plate was vortexed for 10 min. The samples were centrifuged. The supernatant of an aliquot was mixed with an appropriate amount of ultrapure water (depending on the LC-MS/MS signal response and peak shape) prior to the LC-MS/MS analysis. • 6) The stock solution of lucifer yellow in DMSO was prepared and diluted with HBSS to determine the amount of lucifer yellow leakage after a 2-hour transport period. The lucifer yellow solution was added to the apical compartment. HBSS was added to the basolateral compartment. The plate was incubated at 37° C. for 30 min, and a certain amount of the solution was directly taken from the apical and basolateral wells and transferred to a new 96-well plate. The lucifer yellow fluorescence was measured in a fluorescence plate reader with 485 nm excitation and 530 nm emission (to monitor monolayer integrity).
(§7) Data were calculated using Microsoft Excel. The percentage of the compound remaining at each time point was estimated by determining the peak area ratio from the extracted ion chromatogram.
(§8) For drug transport analysis in the Caco-2 cell model, the apparent permeability coefficient (Papp) can be calculated according to the following formula, in cm/s:
(§9) [formula] • wherein the concentration C is in nM, the volume V is in μL, the time T is in s, and the area S is in cm^2.
(§10) The recovery rate is calculated according to the following formula:

In data set [4] the target is T1, BCRP. Description: in vitro. The following applies: for efflux ratio at 2 h: Caco-2; for Papp A→B at 2 h: Caco-2, Papp (A-B) (10^−6, cm/s); for Papp B→A at 2 h: Caco-2, Papp (B-A) (10^−6, cm/s). A general note: Caco-2 cells form a polarised layer with tight junctions and transporters.
Description: as §5, §6, §7, §8, §9, §10
Data set [5] addresses T1, BCRP. Description: Study on transporter substrates in Caco-2 cell model. The following applies: human, Caco-2.
Description: as §5, §6, §7, §8, §9, §10
Setting [6] is: Homo sapiens, JIMT-1, 144 h, read-out: JIMT-1 IC50 (nM).

Take `CC[C@@]1(O)C(=O)OCc2c1cc1n(c2=O)Cc2c-1nc1cc(F)c(C)c3c1c2[C@@H](NC(=O)CCO)CC3` [compound 3, N-((1S,9S)-9-ethyl-5-fluoro-9-hydroxy-4-methyl-10,13-dioxo-2,3,9,10,13,15-hexahydro-1H,12H-benzo[de]pyrano[3′,4′:6,7]indolizino[1,2-b]quinolin-1-yl)-3-hydroxypropanamide, reference compound]: the IC50 (commonly the midpoint of a concentration-inhibition curve) in data set [1] (Homo sapiens, JIMT-1, 144 h, Table 3, Test Example 2.3, small molecule fragments, 6 days of culture, CTG, read-out: JIMT-1 IC50) was 81.2 nM.

Consider `CCCC(O)CC(=O)N[C@H]1CCc2c(C)c(F)cc3nc4c(c1c23)Cn1c-4cc2c(c1=O)COC(=O)[C@]2(O)CC` (stereo partly drawn) [P-III-27, N-((1S,9S)-9-ethyl-5-fluoro-9-hydroxy-4-methyl-10,13-dioxo-2,3,9,10,13,15-hexahydro-1H,12H-benzo[de]pyrano[3′,4′:6,7]indolizino[1,2-b]quinolin-1-yl)-3-hydroxyhexanamide], for which, in data set [2], the half-maximal inhibitory concentration (IC50) stood at 3 nM.

In the case of `CC[C@@]1(O)C(=O)OCc2c1cc1n(c2=O)Cc2c-1nc1cc(F)c(C)c3c1c2[C@@H](NC(=O)C1CCCC(O)C1)CC3` (stereo partly drawn) [P-II-22, N-((1S,9S)-9-ethyl-5-fluoro-9-hydroxy-4-methyl-10,13-dioxo-2,3,9,10,13,15-hexahydro-1H,12H-benzo[de]pyrano[3′,4′:6,7]indolizino[1,2-b]quinolin-1-yl)-3-hydroxycyclohexane-1-carboxamide], the IC50 in data set [1] (setting [6]) was 3.2 nM.

Turning to `CC(C)NCC(O)COc1cccc2ccccc12` (centres unmarked) [Propranolol], the BCRP substrate result in data set [3] (Caco-2) is on record as “No”. In addition, in data set [4], the efflux ratio – broadly, the permeability from basolateral to apical divided by that in the opposite direction, in the common usage – at 2 h came to 1.09; the Papp A→B (as a rule, the apparent permeability from the apical to the basolateral side of a cell layer) at 2 h came out at 17.3 ×10⁻⁶ cm/s; the basolateral-to-apical permeability (Papp B→A) – broadly, the apparent permeability from the basolateral to the apical side of a cell layer – at 2 h came to 18.9 ×10⁻⁶ cm/s. Besides, the recovery at 2 h in data set [4] (Caco-2, Recovery rate (%) AP-BL) came to 62.2%. Further, the recovery at 2 h in data set [4] (Caco-2, Recovery rate (%) BL-AP) was determined as 82.4%.

As to `CC[C@@]1(O)C(=O)OCc2c1cc1n(c2=O)Cc2c-1nc1cc(F)c(C)c3c1c2[C@@H](NC(=O)C(C)C(C)O)CC3` (stereo partly drawn) [compound 4, N-((1S,9S)-9-ethyl-5-fluoro-9-hydroxy-4-methyl-10,13-dioxo-2,3,9,10,13,15-hexahydro-1H,12H-benzo[de]pyrano[3′,4′:6,7]indolizino[1,2-b]quinolin-1-yl)-3-hydroxy-2-methylbutanamide, reference compound], the half-inhibitory concentration (IC50) in data set [1] (setting [6]) was 32.3 nM.

With `CC[C@@]1(O)C(=O)OCc2c1cc1n(c2=O)Cc2c-1nc1cc(F)c(C)c3c1c2[C@@H](NC(=O)C1(O)CCC1)CC3` [compound 1, N-((1S,9S)-9-ethyl-5-fluoro-9-hydroxy-4-methyl-10,13-dioxo-2,3,9,10,13,15-hexahydro-1H,12H-benzo[de]pyrano[3′,4′:6,7]indolizino[1,2-b]quinolin-1-yl)-1-hydroxycyclobutane-1-carboxamide, reference compound], the IC50 in data set [1] (Homo sapiens, JIMT-1, 144 h, Table 2 (untitled), Test Example 2.2, small molecule fragments, 6 days of culture, CTG, read-out: JIMT-1 IC50) amounted to 23.1 nM.

In data set [5] (Caco-2, Recovery rate (%) AP-BL, KO143 −), `CC(C)c1nc(N(C)S(C)(=O)=O)nc(-c2ccc(F)cc2)c1/C=C/[C@@H](O)C[C@@H](O)CC(=O)O` [Rosuvastatin, rosuvastatin, reference compound] came in with a recovery at 2 h of 98.5%. The recovery at 2 h in data set [5] (Caco-2, Recovery rate (%) BL-AP, KO143 −) is 96.8%. In data set [5] (Caco-2, with KO143 (concentration not stated), Recovery rate (%) AP-BL, KO143 +), the recovery at 2 h was 95.8%. Also, the recovery at 2 h in data set [5] (Caco-2, with KO143 (concentration not stated), Recovery rate (%) BL-AP, KO143 +) is 97.1%. In data set [3] (Caco-2), the BCRP substrate result was “Yes”; the “Papp (A-B) (10^−6, cm/s)” value is listed as 0.45 10^−6, cm/s; the “Papp (B-A) (10^−6, cm/s)” value is given as 3.15 10^−6, cm/s. For the same compound, the Efflux ratio in data set [3] (human, Caco-2, 2 h) was found to be 6.96. For the same compound, in data set [4], the efflux ratio at 2 h turned out to be 81.2, the Papp A→B at 2 h was found to be 0.12 ×10⁻⁶ cm/s and the Papp B→A at 2 h was 9.52 ×10⁻⁶ cm/s.

For `CC[C@@]1(O)C(=O)OCc2c1cc1n(c2=O)Cc2c-1nc1cc(F)c(C)c3c1c2[C@@H](NC(=O)CCN)CC3` [compound 2, N-((1S,9S)-9-ethyl-5-fluoro-9-hydroxy-4-methyl-10,13-dioxo-2,3,9,10,13,15-hexahydro-1H,12H-benzo[de]pyrano[3′,4′:6,7]indolino[1,2-b]quinolin-1-yl)-3-aminopropionamide, reference compound], in data set [1] (Table 3, Test Example 2.3, small molecule fragments, 6 days of culture, CTG, read-out: JIMT-1 IC50), the IC50 stood at 36.2 nM.

With `CC[C@@]1(O)C(=O)OCc2c1cc1n(c2=O)Cc2c-1nc1cc(F)c(C)c3c1c2[C@@H](NC(=O)CCS)CC3` [P-III-2, N-((1S,9S)-9-ethyl-5-fluoro-9-hydroxy-4-methyl-10,13-dioxo-2,3,9,10,13,15-hexahydro-1H,12H-benzo[de]pyrano[3′,4′:6,7]indolizino[1,2-b]quinolin-1-yl)-3-mercaptopropanamide], the IC50 in data set [1] (setting [6]) and in data set [2] was 108 nM throughout.

Regarding `CC[C@@]1(O)C(=O)OCc2c1cc1n(c2=O)Cc2c-1nc1cc(F)c(C)c3c1c2[C@@H](NC(=O)CC(=O)CO)CC3` [P-III-22, N-((1S,9S)-9-ethyl-5-fluoro-9-hydroxy-4-methyl-10,13-dioxo-2,3,9,10,13,15-hexahydro-1H,12H-benzo[de]pyrano[3′,4′:6,7]indolizino[1,2-b]quinolin-1-yl)-4-hydroxy-3-oxobutanamide], the half-maximal inhibitory concentration (IC50) in data set [1] (setting [6]) worked out at 12.5 nM.
